Earlier results on 1 substance are cited in patent publication US20040076646A1, “Haptenizing cancer cell components” (priority 2001, published 2004).

In the data set the test system is individuals / adult Americans.

Consider urushiol, for which, for the setting “some individuals, molecular traces”, the “amount of urushiol sufficient to induce the rash response” value is at most 2 µg. Besides, the “proportion of adult Americans who respond” value (≦50 μg of purified material) is 80-90%.
